Source: US20140357577A1, “HIV Membrane Fusion Inhibitors” (priority 2011, published 2014)
Starred links: 1 amine or outer side, 2 acyl side, 3 side chain; linkers in the order of their positions; H or OH if unused. Positions of bridges follow the written chain, without caps; N, C: chain ends. Non-standard residues stand in square brackets, D forms with d. Primed or numbered codes have the meaning given here. *: point of attachment. B21″ = 2,7-dimethylnaphtyl linker joining two Cys, c1cc2ccc(C[*:2])cc2cc1C[*:1]; tBuAla = CC(C)(C)C[C@H](N)C(=O)O; Suc = O=C(CCC(=O)[*:2])[*:1]; Isovaleryl = CC(C)CC(=O)*; Pentanoyl = CCCCC(=O)*; B1 = not defined here; B2 = not defined here

B1: peptide 16 (peptide)
peptide: Pentanoyl-ANYAALIEALIRKAQEQQEKNEAALR-NH2
SMILES: CCCCC(=O)N[C@@H](C)C(=O)N[C@@H](CC(N)=O)C(=O)N[C@@H](Cc1ccc(O)cc1)C(=O)N[C@@H](C)C(=O)N[C@@H](C)C(=O)N[C@@H](CC(C)C)C(=O)N[C@H](C(=O)N[C@@H](CCC(=O)O)C(=O)N[C@@H](C)C(=O)N[C@@H](CC(C)C)C(=O)N[C@H](C(=O)N[C@@H](CCCNC(=N)N)C(=O)N[C@@H](CCCCN)C(=O)N[C@@H](C)C(=O)N[C@@H](CCC(N)=O)C(=O)N[C@@H](CCC(=O)O)C(=O)N[C@@H](CCC(N)=O)C(=O)N[C@@H](CCC(N)=O)C(=O)N[C@@H](CCC(=O)O)C(=O)N[C@@H](CCCCN)C(=O)N[C@@H](CC(N)=O)C(=O)N[C@@H](CCC(=O)O)C(=O)N[C@@H](C)C(=O)N[C@@H](C)C(=O)N[C@@H](CC(C)C)C(=O)N[C@@H](CCCNC(=N)N)C(N)=O)[C@@H](C)CC)[C@@H](C)CC
B2: peptide 23 (peptide)
peptide: Suc-CYLACIEELIRKAQEQQEKNEAAL[tBuAla]-NH2
modifications: linker 1-5 via B2; reading uncertain
B3: peptide 20 (peptide)
peptide: Suc-ENYLRLIEELIRKAQEQQEKNEAALR-NH2
SMILES: CC[C@H](C)[C@H](NC(=O)[C@H](CC(C)C)NC(=O)[C@H](CCC(=O)O)NC(=O)[C@H](CCC(=O)O)NC(=O)[C@@H](NC(=O)[C@H](CC(C)C)NC(=O)[C@H](CCCNC(=N)N)NC(=O)[C@H](CC(C)C)NC(=O)[C@H](Cc1ccc(O)cc1)NC(=O)[C@H](CC(N)=O)NC(=O)[C@H](CCC(=O)O)NC(=O)CCC(=O)O)[C@@H](C)CC)C(=O)N[C@@H](CCCNC(=N)N)C(=O)N[C@@H](CCCCN)C(=O)N[C@@H](C)C(=O)N[C@@H](CCC(N)=O)C(=O)N[C@@H](CCC(=O)O)C(=O)N[C@@H](CCC(N)=O)C(=O)N[C@@H](CCC(N)=O)C(=O)N[C@@H](CCC(=O)O)C(=O)N[C@@H](CCCCN)C(=O)N[C@@H](CC(N)=O)C(=O)N[C@@H](CCC(=O)O)C(=O)N[C@@H](C)C(=O)N[C@@H](C)C(=O)N[C@@H](CC(C)C)C(=O)N[C@@H](CCCNC(=N)N)C(N)=O
B4: peptide 22 (peptide)
peptide: Ac-CYAACIEALIRAAQEQQEKNEAALR-NH2
modifications: linker 1-5 via B21″
SMILES: CC[C@H](C)[C@H](NC(=O)[C@H](CC(C)C)NC(=O)[C@H](C)NC(=O)[C@H](CCC(=O)O)NC(=O)[C@@H](NC(=O)[C@@H]1CSCc2ccc3ccc(cc3c2)CSC[C@H](NC(C)=O)C(=O)N[C@@H](Cc2ccc(O)cc2)C(=O)N[C@@H](C)C(=O)N[C@@H](C)C(=O)N1)[C@@H](C)CC)C(=O)N[C@@H](CCCNC(=N)N)C(=O)N[C@@H](C)C(=O)N[C@@H](C)C(=O)N[C@@H](CCC(N)=O)C(=O)N[C@@H](CCC(=O)O)C(=O)N[C@@H](CCC(N)=O)C(=O)N[C@@H](CCC(N)=O)C(=O)N[C@@H](CCC(=O)O)C(=O)N[C@@H](CCCCN)C(=O)N[C@@H](CC(N)=O)C(=O)N[C@@H](CCC(=O)O)C(=O)N[C@@H](C)C(=O)N[C@@H](C)C(=O)N[C@@H](CC(C)C)C(=O)N[C@@H](CCCNC(=N)N)C(N)=O
B5: peptide 21 (peptide)
peptide: Ac-CYAACIEALIRAAQEQQEKNEAALR-NH2
modifications: linker 1-5 via B1; reading uncertain
B6: peptide 17 (peptide)
peptide: Isovaleryl-ANYAALIEALIRAAQEQQEKNEAALR-NH2
SMILES: CC[C@H](C)[C@H](NC(=O)[C@H](CC(C)C)NC(=O)[C@H](C)NC(=O)[C@H](CCC(=O)O)NC(=O)[C@@H](NC(=O)[C@H](CC(C)C)NC(=O)[C@H](C)NC(=O)[C@H](C)NC(=O)[C@H](Cc1ccc(O)cc1)NC(=O)[C@H](CC(N)=O)NC(=O)[C@H](C)NC(=O)CC(C)C)[C@@H](C)CC)C(=O)N[C@@H](CCCNC(=N)N)C(=O)N[C@@H](C)C(=O)N[C@@H](C)C(=O)N[C@@H](CCC(N)=O)C(=O)N[C@@H](CCC(=O)O)C(=O)N[C@@H](CCC(N)=O)C(=O)N[C@@H](CCC(N)=O)C(=O)N[C@@H](CCC(=O)O)C(=O)N[C@@H](CCCCN)C(=O)N[C@@H](CC(N)=O)C(=O)N[C@@H](CCC(=O)O)C(=O)N[C@@H](C)C(=O)N[C@@H](C)C(=O)N[C@@H](CC(C)C)C(=O)N[C@@H](CCCNC(=N)N)C(N)=O
B7: peptide 19 (peptide)
peptide: Suc-ENYLALIEELIRKAQEQQEKNEAALR-NH2
SMILES: CC[C@H](C)[C@H](NC(=O)[C@H](CC(C)C)NC(=O)[C@H](C)NC(=O)[C@H](CC(C)C)NC(=O)[C@H](Cc1ccc(O)cc1)NC(=O)[C@H](CC(N)=O)NC(=O)[C@H](CCC(=O)O)NC(=O)CCC(=O)O)C(=O)N[C@@H](CCC(=O)O)C(=O)N[C@@H](CCC(=O)O)C(=O)N[C@@H](CC(C)C)C(=O)N[C@H](C(=O)N[C@@H](CCCNC(=N)N)C(=O)N[C@@H](CCCCN)C(=O)N[C@@H](C)C(=O)N[C@@H](CCC(N)=O)C(=O)N[C@@H](CCC(=O)O)C(=O)N[C@@H](CCC(N)=O)C(=O)N[C@@H](CCC(N)=O)C(=O)N[C@@H](CCC(=O)O)C(=O)N[C@@H](CCCCN)C(=O)N[C@@H](CC(N)=O)C(=O)N[C@@H](CCC(=O)O)C(=O)N[C@@H](C)C(=O)N[C@@H](C)C(=O)N[C@@H](CC(C)C)C(=O)N[C@@H](CCCNC(=N)N)C(N)=O)[C@@H](C)CC

Key:
[1] = tested on: HIV wild type virus strain IIIB; assay: Standard Anti-Viral-Experiment (AVE), HIV-1 replication assay in MT4-LTR-EGFP cells, wild type IIIB; assay type: cell-based; conditions: 3 days, EGFP signal
Excerpt: • Standard Anti-Viral-Experiment “AVE” (wild type HIV strain IIIB+HIV strain HXB2D side directed mutants V38A and Q40H)
The HIV-1 replication assay measures virus replication (HIV wild type virus strain 111B or HXB2D, or a HIV mutant virus strain HXB2D with mutation V38A or Q40H in the gp41 gene) as an induction of enhanced green fluorescent protein (EGFP) expression. The indicator MT4-LTR-EGFP cells contain an EGFP gene under the control of the HIV-1 LTR promoter sequence. Successful HIV-1 infection results in viral Tat protein expression and subsequent induction of EGFP expression. Compounds/peptides inhibiting HIV-1 infection are expected to reduce EGFP expression as compared to the untreated HIV-infected control.
Serial 4-fold dilutions of test compounds/peptides were mixed with HIV-1 (IIIB, HXB2D, or a HXB2D mutant virus (V38A or Q40H)) and MT4-LTR-EGFP cells and incubated at 37° C. After 3 days, the wells were examined for EGFP expression using an argon laser-scanning microscope. The effective compound/peptide concentration inhibiting 50% of the virus-induced EGFP signal (EC50) was determined by linear interpolation of the EGFP signal vs. logarithm of the compound concentration; (T20, C34 and Sifuvirtide were added as reference compounds). For the V38A and Q40H mutant viruses, results were reported as a fold change in EC50, as compared with a drug-susceptible wild type strain HXB2D, which forms the backbone of the mutant virus. • Standard AVE (50% Human Serum)

HIV-IIIB + 50% HS = assay: Standard AVE (50% Human Serum), HIV-1 replication assay in MT4-LTR-EGFP cells; assay type: cell-based; conditions: fold change vs EC50 in the assay without human serum
Excerpt: The HIV-1 replication assay (with 50% human serum) measures virus replication as an induction of enhanced green fluorescent protein (EGFP) expression, in the presence of 50% human serum. The indicator MT4-LTR-EGFP cells contain an EGFP gene under the control of the HIV-1 LTR promoter sequence. Successful HIV-1 infection results in viral Tat protein expression and subsequent induction of EGFP expression. Compounds/peptides inhibiting HIV-1 infection are expected to reduce EGFP expression as compared to the untreated HIV-infected control. Compounds/peptides binding to human serum are expected to have a reduced activity for inhibiting the virus in the assay.
Serial 4-fold dilutions of test compounds/peptides were mixed with HIV-1 and MT4-LTR-EGFP cells and incubated at 37° C., in the presence of 50% human serum. After 3 days, the wells were examined for EGFP expression using an argon laser-scanning microscope. The effective compound/peptide concentration inhibiting 50% of the virus-induced EGFP signal (EC50) was determined by linear interpolation of the EGFP signal vs. logarithm of the compound concentration; T20, C34 and Sifuvirtide were added as reference compounds. Results were reported as a fold change in EC50, as compared with the acquired EC50 in the assay without human serum.

[2] = target: gp41 of HIV-1 strain HXB2D with mutation V38A (HIV-1 strain HXB2D, UniProt P04578); assay: cell-based or functional assay

| Molecule | EC50 [1] [nM] | HIV-IIIB + 50% HS (Fold change in EC50) (HIV-IIIB + 50% HS) | fold change in EC50, HIV-HXB2D V38A mutant [2] [fold] |
| --- | --- | --- | --- |
| Ac-ACYVACIEALIRAAQEQQEKNEAALR-NH2 [Peptide 62] | 10 | 2 |  |
| Ac-ACYLACIEALIRAAQEQQEKNEAALL-NH2 [Peptide 54] | 3 | 2 |  |
| AC-ACYWACIEALIRAAQEQQEKNEAALR-NH2 [Peptide 63] | 7 | 3 |  |
| Ac-CYAACIEALIRAAQEQQEKNEAALR-NH2 [Peptide 22] | 35 | 2 |  |
| Ac-CYAACIEALIRAAQEQQEKNEAALR-NH2 [Peptide 21] | 5 | 3 |  |
| Ac-ACYIACIEALIRAAQEQQEKNEAALR-NH2 [Peptide 57] | 4 | 2 |  |
| ANYAALIEALIRKAQEQQEKNEAALR [Peptide 5] | 48 | 0.5 |  |
| Suc-ANYAALIEALIRAAQEQQEKNEAALR-NH2 (SMILES CC[C@H](C)[C@H](NC(=O)[C@H](CC(C)C)NC(=O)[C@H](C)NC(=O)[C@H](CCC(=O)O)NC(=O)[C@@H](NC(=O)[C@H](CC(C)C)NC(=O)[C@H](C)NC(=O)[C@H](C)NC(=O)[C@H](Cc1ccc(O)cc1)NC(=O)[C@H](CC(N)=O)NC(=O)[C@H](C)NC(=O)CCC(=O)O)[C@@H](C)CC)C(=O)N[C@@H](CCCNC(=N)N)C(=O)N[C@@H](C)C(=O)N[C@@H](C)C(=O)N[C@@H](CCC(N)=O)C(=O)N[C@@H](CCC(=O)O)C(=O)N[C@@H](CCC(N)=O)C(=O)N[C@@H](CCC(N)=O)C(=O)N[C@@H](CCC(=O)O)C(=O)N[C@@H](CCCCN)C(=O)N[C@@H](CC(N)=O)C(=O)N[C@@H](CCC(=O)O)C(=O)N[C@@H](C)C(=O)N[C@@H](C)C(=O)N[C@@H](CC(C)C)C(=O)N[C@@H](CCCNC(=N)N)C(N)=O) [Peptide 3] | 22 | 0.4 |  |
| Ac-ACYAAcIEALIRAAQEQQEKNEAALR-NH2 [Peptide 83] | 54 | 3 |  |
| Ac-aCYAACIEALIRAAQEQQEKNEAALr-NH2 [Peptide 76] |  | 2 |  |
| Ac-ACYAACIEALIRAAQEQQEKNEALLR-NH2 [Peptide 73] | 21 | 3 |  |
| AC-ACYAACIEALIRAAQEQQEKNEAALR-NH2 [Peptide 89] | 18 | 3 |  |
| B1 |  |  | 49 |
| B2 |  |  | 45 |
| B3 |  |  | 8 |
| B4 |  |  | 19 |
| B5 |  |  | 75 |
| B6 |  |  | 75 |
| B7 |  |  | 22 |
